Here are results for three molecules from patent US11278541B2, “Low dose combination therapy for treatment of myeloproliferative neoplasms” (Incyte Corporation, priority 2017, dated 2022).

The term pIC50 denotes the IC50 on a negative log10 scale, so that one unit is a factor of ten. Low readings indicate a large IC50, high ones a small IC50. A word on the inhibition: it is how much of the control response was suppressed. Broadly, the fraction unbound is the share of the substance not bound to proteins or other matrix.

Molecules are shown by their SMILES. pIC50: −log10 of the molar value. Counter-ions that a name gives are not always drawn.

One data set concerns the target Pim3 (Homo sapiens, UniProt Q86V86). In words: Pim-3 kinase assay (Assay B). The data set is classed as biochemical. As to conditions: 1 mM ATP.
The nature of data set [1]: Conversion of Example 3 cell activity to protein-binding adjusted activity and human dose.
The next data set deals with T1, Pim1 (Homo sapiens, UniProt P11309).
T1 construct: purchased Invitrogen PV3503
The experiment in a line: Pim-1 kinase assay (Assay B). The data set is classed as biochemical. Conditions: 1 mM ATP. The method, then: Pim-1 and Pim-3 kinase assays—20 μL reactions were run in white 384 well polystyrene plates dotted with 0.8 μL compound/DMSO in the assay buffer (50 mM Tris, pH 7.5, 0.01% Tween-20, 5 mM MgCl2, 0.01% BSA, 5 mM DTT), containing 0.05 μM Biotin-labeled BAD peptide substrate (AnaSpec 62269), 1 mM ATP, and 2.5 pM (Pim-1, Invitrogen PV3503) or 1.25 pM (Pim-3, Millipore 14-738) enzyme for 1 h at 25° C. Reactions were stopped by addition of 10 μL STOP Buffer (150 mM Tris, pH=7.5, 150 mM NaCl, 75 mM EDTA, 0.01% Tween-20, 0.3% BSA) supplemented with Phospho-Bad (Ser112) Antibody (Cell Signaling 9291) diluted 666-fold, and Streptavidin donor beads (PerkinElmer 6760002) along with Protein-A acceptor beads (PerkinElmer 6760137) at 15 μg/mL each. Supplementation of the STOP buffer with beads and stopping the reactions were done under reduced light. Prior to the stopping reactions STOP buffer with beads was pre-incubated for 1 h in the dark at room temperature. After stopping the reactions, plates were incubated for 1 h in the dark at room temperature before reading on a PHERAstar FS plate reader (BMG Labtech) under reduced light.

The subject of data set [2] is pBAD in KMS12BM cell line. In words: pBAD inhibition by patient plasma samples incubated ex vivo with KMS12BM cell line. It is filed as in vivo, human. As to conditions: KMS-12-BM, 192 h; 80 mg BID, cycle 1, day 8, time course. The method, then:
Plasma samples from patients were incubated ex vivo with the KMS12BM cell line for 2.5 hours at 37° C. Whole cell lysates were prepared from the cells, and levels of pBAD were determined using an ELISA.

Data set [3] in a line: Free fraction in media of the Example 3 assay. It is filed as in vitro ADME. Conditions: cell assay media (Example 3 assay); media of Example 3 assay. From the text:
The assay in Example 3 involved plating cells from blood in media. […] The serum free fraction and media free fractions of 7% and 58% can be used to convert the results in Example 3 to an human dose assuming a linear dose-response curve.

Data set [4] concerns Peripheral blood mononuclear cells from an MPN patient (PV, JAK2-V617F+). The experiment in a line: Epo-independent erythroid colony formation. The data set is classed as cell-based, human. As to conditions: Compound 1 alone, colonies scored after 12 days. From the text:
Epo-independent erythroid colonies were scored after 12 days. […] The lower measured % growth indicates synergy.

A further data set deals with T2, Pim2 (Homo sapiens, UniProt Q9P1W9).
T2 construct: purchased Invitrogen PV3649
In words: Pim-2 kinase assay (Assay B). It is filed as biochemical. Conditions: 1 mM ATP. The method, then:
Pim-2 kinase assay—20 μL reactions were run in white 384 well polystyrene plates dotted with 0.8 μL compound/DMSO in the assay buffer (50 mM Tris, pH 7.5, 0.01% Tween-20, 5 mM MgCl2, 0.01% BSA, 5 mM DTT), containing 0.05 μM Fluorescein-labeled CREBtide peptide substrate (Invitrogen PV3508), 1 mM ATP, and 1 nM enzyme (Invitrogen PV3649) for 2 h at 25° C. Reactions were stopped by addition of 10 μL TR-FRET Dilution Buffer (Invitrogen PV3574) with 30 mM EDTA and 1.5 nM LanthaScreen Tb-CREB pSer133 antibody (Invitrogen PV3566). After 30 min. incubation at room temperature, plates were read on a PHERAstar FS plate reader (BMG Labtech).

Data set [5] can be described thus: Protein binding in human serum (equilibrium dialysis). It is filed as in vitro ADME. Conditions: 0.3 μM-10 μM. The method, then: For human, the average in vitro serum fraction unbound (fu) of 7.0%. For the protein binding determination, the Multi-Equilibrium Dialyzer System™ and diachema membranes from Harvard Apparatus (Holliston, Mass.) were utilized. Samples were protein precipitated, matrix matched and then centrifuged. The supernatant was transferred and analyzed using LC-MS/MS. The percent fraction unbound for in vitro samples was calculated using final peak area ratios in post-dialysis buffer divided by final peak area ratios in post-dialysis serum, with correction applied for volume shift.

T1 sequence (P11309 whole entry): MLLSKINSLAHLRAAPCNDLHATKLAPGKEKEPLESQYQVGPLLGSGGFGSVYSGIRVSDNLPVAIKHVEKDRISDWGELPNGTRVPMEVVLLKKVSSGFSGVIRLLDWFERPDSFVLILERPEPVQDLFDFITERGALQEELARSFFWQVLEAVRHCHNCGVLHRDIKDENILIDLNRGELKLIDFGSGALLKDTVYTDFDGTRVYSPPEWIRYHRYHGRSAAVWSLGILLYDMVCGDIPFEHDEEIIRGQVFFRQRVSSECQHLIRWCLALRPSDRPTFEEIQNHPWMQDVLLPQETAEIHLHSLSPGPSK
T2 sequence (Q9P1W9 whole entry): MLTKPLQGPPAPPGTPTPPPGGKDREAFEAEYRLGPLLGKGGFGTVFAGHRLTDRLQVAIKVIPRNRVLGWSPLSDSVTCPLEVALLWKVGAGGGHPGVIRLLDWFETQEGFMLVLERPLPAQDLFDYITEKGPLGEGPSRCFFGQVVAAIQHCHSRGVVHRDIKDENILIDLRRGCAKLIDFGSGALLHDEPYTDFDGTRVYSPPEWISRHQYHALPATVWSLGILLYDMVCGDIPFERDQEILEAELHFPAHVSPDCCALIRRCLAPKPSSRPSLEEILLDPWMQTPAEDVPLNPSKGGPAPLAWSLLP

Regarding `C[C@H]1CN(c2c(NC(=O)c3ccc(F)c(-c4c(F)cccc4F)n3)cnc3c2CC[C@H]3O)C[C@@H](N)[C@@H]1O` [Compound 1, N-{(7R)-4-[(3R,4R,5S)-3-Amino-4-hydroxy-5-methylpiperidin-1-yl]-7-hydroxy-6,7-dihydro-5H-cyclopenta[b]pyridin-3-yl}-6-(2,6-difluorophenyl)-5-fluoropyridine-2-carboxamide], the negative logarithm of the IC50 (pIC50) at Pim3, at Pim1 and against Pim2 was no less than 7.00 throughout. The “shift in activity (media to serum protein binding)” value in data set [1] ((58%)/7%) is listed as 8.3 fold. The “inhibition level corresponding to protein-binding adjusted activity” value in data set [1] (adjusted activity 8.3 nM) is “IC5.7”; in data set [1] (adjusted activity 41 nM), “IC23”. The values for the Protein-binding adjusted activity in data set [1] (cell activity Example 3: 1 nM), in data set [1] (cell activity Example 3: 5 nM) and in data set [1] (cell activity Example 3: 20 nM) were 8.3 nM, 41 nM and 166 nM, respectively. Further, in data set [2], the inhibition at 80 mg is 76%. Also, the values for the free fraction (fraction unbound) in data set [3] and in data set [5] (read-out: average in vitro serum fraction unbound (fu)) were 0.58 and 0.07, respectively. Moreover, in data set [4], the “neoplastic erythroid colony formation of JAK2-V617F(+) MPN hematopoietic progenitors” value is reported as “Inhibition”. For the same molecule, the protein binding result in data set [5] is listed as “high protein binding”.

On to `C[C@H]1CN(c2c(NC(=O)c3ccc(F)c(-c4c(F)cccc4F)n3)cnc3c2CC[C@H]3O)C[C@@H](N)[C@@H]1O` [dihydrochloric acid salt of Compound 1], for which the pIC50 against Pim3, against Pim1 and at Pim2 was greater than 7.46 throughout.

In the case of `C[C@H]1CN(c2c(NC(=O)c3ccc(F)c(-c4c(F)cccc4F)n3)cnc3c2CC[C@H]3O)C[C@@H](N)[C@@H]1O` [phosphoric acid salt of Compound 1], the pIC50 at Pim3, against Pim1 and on Pim2 was greater than 7.46 in each case.
